Data from US20260184663A1, “INDENE COMPOUNDS, PHARMACEUTICAL COMPOSITIONS THEREOF, AND THEIR THERAPEUTIC APPLICATIONS” (NucMito Pharmaceuticals co. Ltd., priority 2022, published 2026).

How the values were obtained:
Assay type in all cases: cell-based
SW480 (colon cancer) = assay: Antiproliferative activity (CCK-8 cell viability), SW480; conditions: Homo sapiens, 72 h, read-out: Antiproliferative activity in cancerous cells, SW480 (inhibition of cell growth); for inhibition at 3.3 µM: Compound concentration: 3.3 μM; for inhibition at 10 µM: Compound concentration: 10 μM; for inhibition at 30 µM: Compound concentration: 30 μM
In short: (§1)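 Cells were seeded at 2,000-5,000/well (HeLa in MEM, HepG2 and SW480 in DMEM, A549 in F-12K, all with 10% FBS) and treated with compound at 3.3, 10 or 30 μM for 72 h at 37° C. CCK-8 was added for 4 h, absorbance was read at 450 nm, and viability was expressed relative to DMSO-treated wells.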

HepG2 (liver cancer) = assay: Antiproliferative activity (CCK-8 cell viability), HepG2; conditions: Homo sapiens, 72 h, read-out: Antiproliferative activity in cancerous cells, HepG2 (inhibition of cell growth); for inhibition at 3.3 µM: Compound concentration: 3.3 μM; for inhibition at 10 µM: Compound concentration: 10 μM; for inhibition at 30 µM: Compound concentration: 30 μM
In short: as §1

[1] = system: A549 (lung adenocarcinoma); assay: Antiproliferative activity (CCK-8 cell viability), A549; conditions: Homo sapiens, 72 h, read-out: Antiproliferative activity in cancerous cells, A549 (inhibition of cell growth); for inhibition at 3.3 µM: Compound concentration: 3.3 μM; for inhibition at 10 µM: Compound concentration: 10 μM; for inhibition at 30 µM: Compound concentration: 30 μM
In short: as §1

[2] = system: MDA-MB-231 (breast cancer); assay: Antiproliferative activity (CCK-8 cell viability), MDA-MB-231; conditions: Homo sapiens, 72 h, read-out: Antiproliferative activity in cancerous cells, MDA-MB-231 (inhibition of cell growth); for inhibition at 3.3 µM: Compound concentration: 3.3 μM; for inhibition at 10 µM: Compound concentration: 10 μM; for inhibition at 30 µM: Compound concentration: 30 μM
In short: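 In this CCK-8 viability assay, MDA-MB-231 cells maintained in Dulbecco's modified Eagle's medium containing 10% fetal bovine serum were placed in 96-well plates (2,000-5,000 cells/well) and treated with compound for 72 h at 37° C. A 4 h incubation with 10 μL CCK-8 followed, plates were read at 450 nm, and viability was expressed against DMSO vehicle wells across replicates.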

[3] = system: A431 (epidermoid carcinoma); assay: Antiproliferative activity (CCK-8 cell viability), A431; conditions: Homo sapiens, 72 h, read-out: Antiproliferative activity in cancerous cells, A431 (inhibition of cell growth); for inhibition at 3.3 µM: A-431, Compound concentration: 3.3 μM; for inhibition at 10 µM: A-431, Compound concentration: 10 μM; for inhibition at 30 µM: A-431, Compound concentration: 30 μM
In short: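 Cell viability of compound-treated A431 cells was measured with a Cell Counting Kit-8. Each well received 10 μL of CCK-8 after 72 h of compound exposure, followed by 4 h incubation at 37° C. and a 450 nm plate-reader measurement. Percent viability was calculated relative to DMSO controls across replicates.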

HeLa (cervical cancer) = assay: Antiproliferative activity (CCK-8 cell viability), HeLa; conditions: Homo sapiens, 72 h, read-out: Antiproliferative activity in cancerous cells, HELA (inhibition of cell growth); for inhibition at 3.3 µM: Compound concentration: 3.3 μM; for inhibition at 10 µM: Compound concentration: 10 μM; for inhibition at 30 µM: Compound concentration: 30 μM
In short: as §1

[4] = system: B16F10 (malignant melanoma); assay: Antiproliferative activity (CCK-8 cell viability), B16F10; conditions: Mus musculus, 72 h, read-out: Antiproliferative activity in cancerous cells, B16F10 (inhibition of cell growth); for inhibition at 3.3 µM: B16-F10, Compound concentration: 3.3 μM; for inhibition at 10 µM: B16-F10, Compound concentration: 10 μM; for inhibition at 30 µM: B16-F10, Compound concentration: 30 μM
In short: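 Attached B16F10 cells in 96-well plates were incubated with compound at 37° C for 72 h, followed by 10 μL CCK-8 reagent per well and a further 4 h incubation. A multi-well plate reader measured absorbance at 450 nm. Percent viability across replicates was calculated against DMSO vehicle-treated cells.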

| SMILES | inhibition at 3.3 µM (SW480 (colon cancer)) [%] | inhibition at 10 µM (SW480 (colon cancer)) [%] | inhibition at 30 µM (SW480 (colon cancer)) [%] | inhibition at 3.3 µM (HepG2 (liver cancer)) [%] | inhibition at 10 µM (HepG2 (liver cancer)) [%] | inhibition at 30 µM (HepG2 (liver cancer)) [%] | inhibition at 3.3 µM [1] [%] | inhibition at 10 µM [1] [%] | inhibition at 30 µM [1] [%] | inhibition at 3.3 µM [2] [%] | inhibition at 10 µM [2] [%] | inhibition at 30 µM [2] [%] | inhibition at 3.3 µM [3] [%] | inhibition at 10 µM [3] [%] | inhibition at 30 µM [3] [%] | inhibition at 3.3 µM (HeLa (cervical cancer)) [%] | inhibition at 10 µM (HeLa (cervical cancer)) [%] | inhibition at 30 µM (HeLa (cervical cancer)) [%] | inhibition at 3.3 µM [4] [%] | inhibition at 10 µM [4] [%] | other results |
| --- | --- | --- | --- | --- | --- | --- | --- | --- | --- | --- | --- | --- | --- | --- | --- | --- | --- | --- | --- | --- | --- |
| CC1=C(CC(=O)O)c2cccc(F)c2/C1=C/c1cccc(COc2ccccc2)c1 [E8, (E)-2-(7-Fluoro-2-methyl-1-(3-(phenoxymethyl)benzylidene)-1H-inden-3-yl)-acetic acid] | 30 to 50 | ≥ 50 | ≥ 50 | 30 to 50 | ≥ 50 | ≥ 50 | < 30 | ≥ 50 | ≥ 50 | ≥ 50 | ≥ 50 | ≥ 50 | ≥ 50 | ≥ 50 | ≥ 50 | 30 to 50 | ≥ 50 | ≥ 50 | < 30 | 30 to 50 | inhibition at 30 µM [4]: ≥ 50% |
| CC1=C(CC(=O)O)c2cc(F)ccc2/C1=C/c1cccc(COc2ccc(F)c(F)c2)c1 [E9, 2-[(1E)-1-({3-[(3,4-Difluorophenoxy)methyl]phenyl}methylidene)-5-fluoro-2-methyl-1H-inden-3-yl]acetic acid] | ≥ 50 | ≥ 50 | ≥ 50 | 30 to 50 | ≥ 50 | ≥ 50 | 30 to 50 | 30 to 50 | ≥ 50 | ≥ 50 | ≥ 50 | ≥ 50 | < 30 | ≥ 50 | ≥ 50 | < 30 | 30 to 50 | ≥ 50 | 30 to 50 | ≥ 50 | inhibition at 30 µM [4]: ≥ 50% |
| CC1=C(CC(=O)O)c2cc(F)ccc2/C1=C/c1ccc(Oc2ccc(F)cc2F)cc1 [E17, (E)-2-(1-(4-(2,4-Difluorophenoxy)benzylidene)-5-fluoro-2-methyl-1H-inden-3-yl)acetic acid] | < 30 | ≥ 50 | ≥ 50 | ≥ 50 | ≥ 50 | ≥ 50 | < 30 | ≥ 50 | ≥ 50 | 30 to 50 | ≥ 50 | ≥ 50 | < 30 | ≥ 50 | ≥ 50 | 30 to 50 | ≥ 50 | ≥ 50 | ≥ 50 | ≥ 50 | inhibition at 30 µM [4]: ≥ 50% |
| CC1=C(CC(=O)O)c2cc(I)ccc2/C1=C/c1ccc(COCc2ccc(F)cc2)cc1 [E18, (E)-2-(1-(4-(((4-Fluorobenzyl)oxy)methyl)benzylidene)-5-iodo-2-methyl-1H-inden-3-yl)acetic acid] | < 30 | ≥ 50 | ≥ 50 | < 30 | ≥ 50 | ≥ 50 | < 30 | ≥ 50 | ≥ 50 | < 30 | ≥ 50 | ≥ 50 | ≥ 50 | ≥ 50 | ≥ 50 | ≥ 50 | ≥ 50 | ≥ 50 | 30 to 50 | ≥ 50 | inhibition at 30 µM [4]: ≥ 50% |
| COc1ccc(S(=O)(=O)Cc2ccc(/C=C3\C(C)=C(CC(=O)O)c4cc(F)ccc43)cc2)cc1 [E20, (E)-2-(5-Fluoro-1-(4-(((4-methoxyphenyl)sulfonyl)methyl)benzylidene)-2-methyl-1H-inden-3-yl)acetic acid] | 30 to 50 | 30 to 50 | ≥ 50 | 30 to 50 | ≥ 50 | ≥ 50 | < 30 | 30 to 50 | ≥ 50 | < 30 | 30 to 50 | ≥ 50 | 30 to 50 | ≥ 50 | ≥ 50 | < 30 | ≥ 50 | ≥ 50 | < 30 | 30 to 50 | inhibition at 30 µM [4]: ≥ 50% |
| CC1=C(CC(=O)O)c2cc(F)ccc2/C1=C/c1ccc(Oc2ccc(Cl)c(Cl)c2)cc1 [E21, (E)-2-(1-(4-(3,4-Dichlorophenoxy)benzylidene)-5-fluoro-2-methyl-1H-inden-3-yl)acetic acid] | 30 to 50 | ≥ 50 | ≥ 50 | < 30 | ≥ 50 | ≥ 50 | 30 to 50 | ≥ 50 | ≥ 50 | ≥ 50 | ≥ 50 | ≥ 50 | ≥ 50 | ≥ 50 | ≥ 50 | ≥ 50 | ≥ 50 | ≥ 50 | < 30 | ≥ 50 | inhibition at 30 µM [4]: ≥ 50% |
| CC1=C(CC(=O)O)c2cc(F)ccc2/C1=C/c1ccc(-c2ccc(Cl)cc2)cc1 [E22, (E)-2-(1-((4′-Chloro-[1,1′-biphenyl]-4-yl)methylene)-5-fluoro-2-methyl-1H-inden-3-yl)acetic acid] | 30 to 50 | ≥ 50 | ≥ 50 | ≥ 50 | ≥ 50 | ≥ 50 | 30 to 50 | ≥ 50 | ≥ 50 | ≥ 50 | ≥ 50 | ≥ 50 | 30 to 50 | ≥ 50 | ≥ 50 | 30 to 50 | ≥ 50 | ≥ 50 | ≥ 50 | ≥ 50 | inhibition at 30 µM [4]: ≥ 50% |
